From ChEMBL document CHEMBL3243996, “[1-Deaminopenicillamine,4-threonine]oxytocin, a potent inhibitor of oxytocin” (J Med Chem, 1978)
Activity calls are given as the source filed them. No cut-off for these calls is given here. Starred links: 1 amine or outer side, 2 acyl side, 3 side chain; linkers in the order of their positions; H or OH if unused. Positions of bridges follow the written chain, without caps; N, C: chain ends. Residues, ends and D or L forms follow the SMILES beside them. X2 = O=C(CC1(S[*:2])CCCCC1)[*:1]; X1 = CC(C)(CC(=O)[*:1])S[*:2]

Assays:
[1] = biological target: T1, Oxytocin receptor (Rattus norvegicus) (UniProt P70536); assay: (§1) Antagonist activity at oxytocin receptor in rat uterus by Schild's method in absence of Mg2+; type: tissue-based
T1 sequence (whole entry): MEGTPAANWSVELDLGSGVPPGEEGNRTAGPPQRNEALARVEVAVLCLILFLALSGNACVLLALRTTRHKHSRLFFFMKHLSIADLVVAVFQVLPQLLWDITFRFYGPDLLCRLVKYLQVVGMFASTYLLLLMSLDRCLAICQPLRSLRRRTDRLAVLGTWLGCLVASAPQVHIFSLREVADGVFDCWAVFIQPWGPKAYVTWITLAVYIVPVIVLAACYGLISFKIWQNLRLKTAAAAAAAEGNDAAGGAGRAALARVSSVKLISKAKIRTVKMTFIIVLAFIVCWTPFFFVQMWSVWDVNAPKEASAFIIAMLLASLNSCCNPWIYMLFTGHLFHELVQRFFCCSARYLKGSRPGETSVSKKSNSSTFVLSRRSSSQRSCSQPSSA

Oxytocin receptor [2] = biological target: T2, Oxytocin receptor (Rattus norvegicus, UniProt P70536); assay: as §1; type: tissue-based; conditions: read-out: pA2 (converted)
T2 sequence (P70536 whole entry): T1 sequence (whole entry)

[3] = (§2) Antagonist activity at rat vasopressin receptor
Oxytocin receptor [4] = biological target: T2, Oxytocin receptor; assay: (§3) Antagonist activity at oxytocin receptor in rat uterus by average effective molar concentration based analysis; type: tissue-based; conditions: read-out: pA2 (converted)
[5] = biological target: T1, Oxytocin receptor (Rattus norvegicus); assay: as §3; type: tissue-based
Rattus norvegicus [6] = species: Rattus norvegicus; assay: as §2
[7] = biological target: T1, Oxytocin receptor (Rattus norvegicus); assay: Agonist activity at oxytocin receptor in rat uterus; type: tissue-based
Rattus norvegicus [8] = species: Rattus norvegicus; assay: Agonist activity at rat vasopressin receptor

| Compound | A2 [1] [×10⁻⁸ M] | Kb (Oxytocin receptor [2]) [nM] | Kb (Oxytocin receptor [4]) [nM] | further results |
| --- | --- | --- | --- | --- |
| CC[C@H](C)[C@@H]1NC(=O)[C@H](Cc2ccc(O)cc2)NC(=O)CC(C)(C)SSC[C@@H](C(=O)N2CCC[C@H]2C(=O)N[C@@H](CC(C)C)C(=O)NCC(N)=O)NC(=O)[C@H](CC(N)=O)NC(=O)[C@H]([C@@H](C)O)NC1=O (stereo in doubt; 1b) [listing 1 of 2 here] | 4.3 | – | – | – |
| CC[C@H](C)[C@@H]1NC(=O)[C@H](Cc2ccc(O)cc2)NC(=O)CC(C)(C)SSC[C@@H](C(=O)N2CCC[C@H]2C(=O)N[C@@H](CC(C)C)C(=O)NCC(N)=O)NC(=O)[C@H](CC(N)=O)NC(=O)[C@H]([C@@H](C)O)NC1=O (stereo in doubt; 1a) [listing 1 of 2 here] | – | 34.7 | – | pA2 [3]: 6.67 |
| CC[C@H](C)[C@@H]1NC(=O)[C@H](Cc2ccc(O)cc2)NC(=O)[C@@H](N)C(C)(C)SSC[C@@H](C(=O)N2CCC[C@H]2C(=O)N[C@@H](CC(C)C)C(=O)NCC(N)=O)NC(=O)[C@H](CC(N)=O)NC(=O)[C@H](CCC(N)=O)NC1=O | – | – | 138 | – |
| CC[C@H](C)[C@@H]1NC(=O)[C@H](Cc2ccc(O)cc2)NC(=O)CC2(CCCCC2)SSC[C@@H](C(=O)N2CCC[C@H]2C(=O)N[C@@H](CC(C)C)C(=O)NCC(N)=O)NC(=O)[C@H](CC(N)=O)NC(=O)[C@H](CCC(N)=O)NC1=O (YIQNCPLG-NH2; linker N-5 via X2) | – | 37.2 | 37.2 | A2 [5]: 3.7 ×10⁻⁸ M; Activity (Rattus norvegicus [6]): Active |
| CC[C@H](C)[C@@H]1NC(=O)[C@H](Cc2ccc(O)cc2)NC(=O)CC(C)(C)SSC[C@@H](C(=O)N2CCC[C@H]2C(=O)N[C@@H](CC(C)C)C(=O)NCC(N)=O)NC(=O)[C@H](CC(N)=O)NC(=O)[C@H]([C@@H](C)O)NC1=O (stereo in doubt; 1b) [listing 2 of 2 here] | – | 25.7 | – | – |
| CC[C@H](C)[C@@H]1NC(=O)[C@H](Cc2ccc(O)cc2)NC(=O)CC(C)(C)SSC[C@@H](C(=O)N2CCC[C@H]2C(=O)N[C@@H](CC(C)C)C(=O)NCC(N)=O)NC(=O)[C@H](CC(N)=O)NC(=O)[C@H](CCC(N)=O)NC1=O (YIQNCPLG-NH2; linker N-5 via X1) | 9.1 | 72.4 | 115 | A2 [5]: 11.6 ×10⁻⁸ M; pA2 [3]: 6.27 |
| CC[C@H](C)[C@@H]1NC(=O)[C@H](Cc2ccc(O)cc2)NC(=O)CC(C)(C)SSC[C@@H](C(=O)N2CCC[C@H]2C(=O)N[C@@H](CC(C)C)C(=O)NCC(N)=O)NC(=O)[C@H](CC(N)=O)NC(=O)[C@H]([C@@H](C)O)NC1=O (stereo in doubt; 1a) [listing 2 of 2 here] | 4 | – | – | Activity [7]: inactive; Activity (Rattus norvegicus [8]): inactive |
